Laboratory results published in US6346406B1, “Elongation factor-2 kinase (EF-2 kinase), and methods of use therefor” (University of Medicine & Dentistry of New Jersey, priority 1997, dated 2002).

Columns and labels:
[1] = system: recombinant human eEF-2 kinase; assay: eEF-2 kinase activity assay: phosphorylation of rabbit reticulocyte eEF-2 with [γ-32P]ATP, SDS/PAGE and autoradiography; type: biochemical; details: kinase expressed in coupled transcription/translation system, assayed without further purification; 20 μM antagonist is printed in the FIG. 3 legend for panel C
Protocol: FIG. 3. Activity of recombinant eEF-2 kinase in vitro. A large scale (0.5 ml) reaction using a mixture of Cefk-1 and Cefk-2 plasmids was run as in FIG. 2, with the omission of labeled methionine. In the control experiment, the reaction was run with a plasmid containing a luciferase gene. (A) The reaction mixtures were separated by chromatography on a Mono Q column as described. (B) eEF-2 kinase activity in fractions was measured as the ability to phosphorylate purified rabbit eEF-2 in the presence of [γ-^32 P]ATP. Purified rabbit reticulocyte eEF-2 kinase was used in the (+) control experiments. (C) Ca^2+/calmodulin-dependency of recombinant C. elegans eEF-2 kinase. Mono Q fraction 25 was assayed in a standard eEF-2 kinase assay in the presence and absence of Ca^2+ and calmodulin and 20 μM trifluoperazine (TFP) or N-(6 aminohexyl)-5-chloro-1-napthalene-sulfonamide (W7). (D) Ca^2+/calmodulin-dependency of recombinant human eEF-2 kinase. […]
To assay for eEF-2 kinase activity, 5 μl from each fraction was added to a reaction mixture (40 μl) containing 50 mM Hepes-KOH (ph. 7.4) 10 mM magnesium acetate, 0.1 mM CaCl2, 5 mM dithiothreitol, 50 μM ATP, 2 μCi [γ-^32P]ATP, 0.6 μg calmodulin, and 0.5 μg rabbit reticulocyte eEF-2. […] Phosphoproteins were analyzed by autoradiography. […]

recombinant eEF-2 kinase = target: T1, recombinant eEF-2 kinase (Homo sapiens, UniProt O00418); assay: eEF-2 kinase activity assay using a 16-amino acid peptide derived from myosin heavy chain as the phosphorylation target; type: biochemical; details: [γ-33P]ATP, 30° C., phosphocellulose paper, scintillation counting
T1 construct: one of GST (pGEX-2T), 6xHis (pRSET A) or thioredoxin (pThioHisB); made in house; host or cells: Escherichia coli BL21(DE3)
Protocol: FIG. 8. Assay for eEF-2 kinase activity. Recombinant eEF-2 kinase (2 μg) was incubated with increasing concentrations of a peptide phosphorylation target (RKKGESEKTKTKEFL) in a buffer consisting of 12.5 mM Hepes-KOH (pH 7.4), 2.5 mM magnesium acetate, 1.25 mM DTT, 25 μM CaCl2, 0.5 μg calmodulin, 100 μM ATP, and 0.5 μCi [γ-^33P]ATP in a total volume of 50 μl. Samples were incubated at 30° C. and aliquots were withdrawn at various time points, and the reaction was terminated by incubation in an ice water bath. The aliquots were then spotted onto phosphocellulose paper (2 cm×2 cm) and washed (4×4 min) with 75 mM phosphoric acid. The papers were then rinsed with 100% ethanol, dried, and then counted in a scintillation counter.
Human eEF-2 kinase cDNA was cloned into three different expression vectors: pGEX-2T (Pharmacia Biotech, Piscataway, N.J.); pRSET A (Invitrogen, Sorrento Valley, Calif.); and, pThioHisB (Invitrogen). After transformation into Escherichia coli strain BL21(DE3), transformants were cultured in LB broth containing 50 μg/ml ampicillin. When the cultured reached an A600 value of 0.7, isopropyl-β-thiogalactopyranoside (IPTG) was added to the bacterial cultures to a final concentration of […] to induce expression. […] The refolded protein was analyzed by SDS-PAGE and assayed for the ability to phosphorylate eEF-2. […]

Compound	inhibition of recombinant human eEF-2 kinase activity by calmodulin antagonists [1]	ability to serve as substrate (phosphoacceptor) for eEF-2 kinase (recombinant eEF-2 kinase)
NCCCCCCNS(=O)(=O)c1cccc2c(Cl)cccc12 [N-(6-aminohexyl)-5-chloro-1-napthalene-sulfonamide]	completely inhibited	
CN1CCN(CCCN2c3ccccc3Sc3ccc(C(F)(F)F)cc32)CC1 [trifluoperazine]	completely inhibited	
RKKFGESEKTKTKEFL [16-mer peptide based on the phosphorylation site of Dictyostelium discoideum MHC, substrate for eEF-2 kinase]		good substrate
